Where two headings read alike, the source gives them in different places.
Experiments:
[1] = biological target: T1, human recombinant GR (Homo sapiens, UniProt P04150); assay: Human glucocorticoid receptor (GR) fluorescence polarisation (FP) binding assay
T1 construct: purchased PanVera P2812
T1 sequence (P04150 1-777): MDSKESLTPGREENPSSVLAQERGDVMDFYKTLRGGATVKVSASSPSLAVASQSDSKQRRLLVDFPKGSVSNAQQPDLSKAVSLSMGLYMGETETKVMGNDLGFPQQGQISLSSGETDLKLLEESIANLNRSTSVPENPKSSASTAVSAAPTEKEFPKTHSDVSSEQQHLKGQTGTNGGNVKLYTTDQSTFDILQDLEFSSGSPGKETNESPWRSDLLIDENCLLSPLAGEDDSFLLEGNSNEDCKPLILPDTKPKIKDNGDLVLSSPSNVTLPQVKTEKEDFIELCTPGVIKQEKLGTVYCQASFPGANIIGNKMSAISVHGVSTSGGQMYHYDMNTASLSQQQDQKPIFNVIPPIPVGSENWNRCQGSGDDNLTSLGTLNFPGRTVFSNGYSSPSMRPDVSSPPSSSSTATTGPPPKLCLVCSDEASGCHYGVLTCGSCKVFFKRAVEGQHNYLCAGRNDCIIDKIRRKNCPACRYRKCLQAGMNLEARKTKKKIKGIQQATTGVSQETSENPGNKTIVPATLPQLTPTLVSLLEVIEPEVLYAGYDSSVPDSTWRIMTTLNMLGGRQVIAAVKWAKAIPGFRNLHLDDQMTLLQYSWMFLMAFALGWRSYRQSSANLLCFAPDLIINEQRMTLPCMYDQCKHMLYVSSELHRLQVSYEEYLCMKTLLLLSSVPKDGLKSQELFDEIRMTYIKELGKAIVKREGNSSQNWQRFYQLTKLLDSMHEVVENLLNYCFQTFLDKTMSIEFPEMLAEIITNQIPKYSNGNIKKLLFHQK
Protocol: Human Glucocorticoid Receptor (GR) Fluorescence Polarisation (FP) Binding Assay
The following is a description of a FP assay for measuring compound inhibition of labelled glucocorticoid binding to the human recombinant GR.
The binding affinity of test compounds was determined using a FP binding assay using human recombinant GR (PanVera P2812) and a fluorescent labelled glucocorticoid ligand (Fluorome GS Red) (PanVera P2894). The presence of inhibitors prevents the formation of a GS Red/GR complex resulting in a decrease in the measured polarisation value. The change in polarisation value in the presence of test compounds is used to calculate the binding affinity of the compound for GR.
This assay was performed in 384 well, black, round-bottom, polypropylene micro titre plates in a final volume of 20 μl. The assay contained 5 μl 1 nM GR (final concentration), 5 μl 0.5 nM Fluorome GS Red (final concentration) in the presence of 10 μl test compounds. Positive control wells (high polarisation) receive, 10 μl 2% (v: v) DMSO vehicle (1% (v/v) final concentration)+5 μl 1 nM GR and 5 μl 0.5 nM Fluorome GS Red. […] Assay blank background wells (used for normalisation) receive 15 μl 1× GS screening buffer+5 μl GR.
Compounds were prepared as solubilised solids at 10 mM in DMSO. On the day of assay, an 8 point half-log serial dilution (55 μl DMSO+25 μl compound solution) was prepared. A 1:50 dilution (1 μl compound solution+49 μl 1× GR screening buffer) was prepared for each compound. The compounds were prepared at 2× final assay concentration.
The plates were mixed and incubated for 4 hour at room temperature.
10× GR screening buffer (100 mM potassium phosphate pH 7.4, 200 mM Na2MoO4, 1 mM EDTA, 20% (v/v) DMSO). To prepare 1× GR screening buffer, combine 1 ml 10× GR screening buffer (PanVera P2814)+1 ml stabilising peptide (PanVera P2815)+7.95 ml 4° C. MQ water. Add 50 μl 1M DTT, vortex and place on ice until use.

[2] = tested on: induction of TAT by dexamethasone in HepG2 cells; assay: HepG2 tyrosine aminotransferase (TAT) assay; assay type: cell-based, human; details: HepG2 cells, challenge of 100 nM dexamethasone; Ki from IC50 by Cheng and Prusoff equation
Protocol: Example 21. HepG2 Tyrosine Aminotransferase (TAT) Assay
Glucocorticoid mediated activation of TAT occurs by transactivation of glucocorticoid response elements in the TAT promoter by glucocorticoid receptor agonist complex.
TAT activity was measured as outlined in the literature by A. Ali et al., J. Med. Chem., 2004, 47, 2441-2452.
HepG2 cells were cultured using MEME media supplemented with 10% (v/v) foetal bovine serum; 2 mM L-glutamine and 1% (v/v) NEAA at 37° C., 5%/95% (v/v) CO2/air. The HepG2 cells were counted and adjusted to yield a density of 0.125×10^6 cells/ml in RPMI 1640 without phenol red, 10% (v/v) charcoal stripped FBS, 2 mM L-glutamine and seeded at 25,000 cells/well in 200 μl into 96 well, sterile, tissue culture micro titre plates, and incubated at 37° C., 5% CO2 for 24 hours
Growth media was removed and replaced with assay media {RPMI 1640 without phenol red, 2 mM L-glutamine+10 μM forskolin}. […] Compounds were serially half log diluted in 100% (v/v) dimethylsupfoxide from a 10 mM stock.
HepG2 cells were then lysed with 30 μl of cell lysis buffer containing a protease inhibitor cocktail for 15 minutes at 4° C. 155 μl of substrate mixture was then added containing 5.4 mM Tyrosine sodium salt, 10.8 mM alpha ketoglutarate and 0.06 mM pyridoxal 5′ phosphate in 0.1M potassium phosphate buffer (pH 7.4). After 2 hours incubation at 37° C. the reaction was terminated by the addition of 15 μl of 10M aqueous potassium hydroxide solution, and the plates incubated for a further 30 minutes at 37° C. The TAT activity product was measured by absorbance at […].
[compound] and fitting the data to a 4 parameter logistic equation.

[3] = human recombinant GR, fluorescence polarisation binding assay, read-out: GR binding

SMILES	Ki [1, 3]	Ki [2]	Ki [1]
O=C(c1nccs1)[C@]12Cc3cnn(-c4ccc(F)cc4)c3C=C1CCN(S(=O)(=O)c1cccc(F)c1)C2 [Example 5A, (R)-(1-(4-fluorophenyl)-6-((3-fluorophenyl)sulfonyl)-4,4a,5,6,7,8-hexahydro-1H-pyrazolo[3,4-g]isoquinolin-4a-yl)(thiazol-2-yl)methanone]	< 0.5 nM	< 20 nM	–
O=C(c1ccccn1)[C@]12Cc3cnn(-c4ccc(F)cc4)c3C=C1CCN(S(=O)(=O)C1CCCCC1)C2 [Example 2T, (R)-(6-(cyclohexylsulfonyl)-1-(4-fluorophenyl)-4,4a,5,6,7,8-hexahydro-1H-pyrazolo [3,4-g]isoquinolin-4a-yl)(pyridin-2-yl)methanone]	> 1 nM	≥ 100 nM	–
O=C(c1ccccn1)[C@]12Cc3cnn(-c4ccc(F)cc4)c3C=C1CCN(S(=O)(=O)C1CCOCC1)C2 [Example 2S, (R)-(1-(4-fluorophenyl)-6-((tetrahydro-2H-pyran-4-yl)sulfonyl)-4,4a,5,6,7,8-hexahydro-1H-pyrazolo[3,4-g]isoquinolin-4a-yl)(pyridin-2-yl)methanone]	> 1 nM	≥ 100 nM	–
Cc1ccc(S(=O)(=O)N2CCC3=Cc4c(cnn4-c4ccc(F)cc4)C[C@]3(C(=O)c3ccccn3)C2)cc1 [Example 2O, (R)-(1-(4-fluorophenyl)-6-tosyl-4,4a,5,6,7,8-hexahydro-1H-pyrazolo [3,4-g]isoquinolin-4a-yl)(pyridin-2-yl)methanone]	–	< 20 nM	< 0.5 nM
O=C(c1nccs1)[C@]12Cc3cnn(-c4ccc(F)cc4)c3C=C1CCN(S(=O)(=O)CC1CCCO1)C2 (mixture of isomers) [Example 2B, ((4a R)-1-(4-fluorophenyl)-6-((((R/S)-tetrahydrofuran-2-yl)methyl)sulfonyl)-4,4a,5,6,7,8-hexahydro-1H-pyrazolo[3,4-g]isoquinolin-4a-yl)(thiazol-2-yl)methanone]	0.5 to 1 nM	≥ 100 nM	–
COc1ccnc(C(=O)[C@]23Cc4cnn(-c5ccc(F)cc5)c4C=C2CCN(S(=O)(=O)c2cc(F)c(F)c(F)c2)C3)c1 [Example 1M, (R)-(1-(4-fluorophenyl)-6-((3,4,5-trifluorophenyl)sulfonyl)-4,4a,5,6,7,8-hexahydro-1H-pyrazolo[3,4-g]isoquinolin-4a-yl)(4-methoxypyridin-2-yl)methanone]	< 0.5 nM	< 20 nM	–
CCn1nccc1S(=O)(=O)N1CCC2=Cc3c(cnn3-c3ccc(F)cc3)C[C@]2(C(=O)c2cc(C(F)(F)F)ccn2)C1 [Example 2U, (R)-(6-((1-ethyl-1H-pyrazol-5-yl)sulfonyl)-1-(4-fluorophenyl)-4,4a,5,6,7,8-hexahydro-1H-pyrazolo[3,4-g]isoquinolin-4a-yl)(4-(trifluoromethyl)pyridin-2-yl)methanone]	> 1 nM	< 20 nM	–
O=C(c1ccccn1)[C@]12Cc3cnn(-c4ccc(F)cc4)c3C=C1CCN(S(=O)(=O)c1cncc(N3CCCCC3)c1)C2 [Example 10A, (R)-(1-(4-fluorophenyl)-6-((5-(piperidin-1-yl)pyridin-3-yl)sulfonyl)-4,4a,5,6,7,8-hexahydro-1H-pyrazolo[3,4-g]isoquinolin-4a-yl)(pyridin-2-yl)methanone]	< 0.5 nM	–	–
Cn1cc(S(=O)(=O)N2CCC3=Cc4c(cnn4-c4ccc(F)cc4)C[C@]3(C(=O)c3ccccn3)C2)ccc1=O [Example 17, (R)-5-((1-(4-fluorophenyl)-4a-picolinoyl-4a,5,7,8-tetrahydro-1H-pyrazolo [3,4-g]isoquinolin-6 (4H)-yl)sulfonyl)-1-methylpyridin-2 (1H)-one]	–	≥ 100 nM	–

Further lines, with some results ahead:

Ki [1, 3]	SMILES	Ki [2]	Ki [1]
< 0.5 nM	Cn1nccc1S(=O)(=O)N1CCC2=Cc3c(cnn3-c3ccc(F)cc3)C[C@]2(C(=O)c2cc(C(F)(F)F)ccn2)C1 [Example 11BM, (R)-(1-(4-fluorophenyl)-6-((1-methyl-1H-pyrazol-5-yl)sulfonyl)-4,4a,5,6,7,8-hexahydro-1H-pyrazolo[3,4-g]isoquinolin-4a-yl)(4-(trifluoromethyl)pyridin-2-yl)methanone]	< 20 nM	–
< 0.5 nM	Cc1ccc(S(=O)(=O)N2CCC3=Cc4c(cnn4-c4ccc(F)cc4)C[C@]3(C(=O)c3ccccn3)C2)c(F)c1 [Example 11E, (R)-(6-((2-fluoro-4-methylphenyl)sulfonyl)-1-(4-fluorophenyl)-4,4a,5,6,7,8-hexahydro-1H-pyrazolo[3,4-g]isoquinolin-4a-yl)(pyridin-2-yl)methanone]	20 to 100 nM	–
< 0.5 nM	Cc1ccnc(C(=O)[C@]23Cc4cnn(-c5ccc(F)cc5)c4C=C2CCN(S(=O)(=O)c2ccc4c(c2)CCO4)C3)c1 [Example 11AN, (R)-(6-((2,3-dihydrobenzofuran-5-yl)sulfonyl)-1-(4-fluorophenyl)-4,4a,5,6,7,8-hexahydro-1H-pyrazolo[3,4-g]isoquinolin-4a-yl)(4-methylpyridin-2-yl)methanone]	< 20 nM	–
> 1 nM	Cn1cc(C(=O)[C@]23Cc4cnn(-c5ccc(F)cc5)c4C=C2CCN(S(=O)(=O)c2ccc(Cl)c(Cl)c2)C3)cn1 [Example 11CC, (R)-(6-((3,4-dichlorophenyl)sulfonyl)-1-(4-fluorophenyl)-4,4a,5,6,7,8-hexahydro-1H-pyrazolo[3,4-g]isoquinolin-4a-yl)(1-methyl-1H-pyrazol-4-yl)methanone]	20 to 100 nM	–
< 0.5 nM	Cc1ccnc(C(=O)[C@]23Cc4cnn(-c5ccc(F)cc5)c4C=C2CCN(S(=O)(=O)c2c(C)noc2C)C3)c1 [Example 11AX, (R)-(6-((3,5-dimethylisoxazol-4-yl)sulfonyl)-1-(4-fluorophenyl)-4,4a,5,6,7,8-hexahydro-1H-pyrazolo[3,4-g]isoquinolin-4a-yl)(4-methylpyridin-2-yl)methanone]	20 to 100 nM	–
< 0.5 nM	Cn1ncc(S(=O)(=O)N2CCC3=Cc4c(cnn4-c4ccc(F)cc4)C[C@]3(C(=O)c3cscn3)C2)n1 (single isomer, unassigned) [Example 11DA]	< 20 nM	–
< 0.5 nM	Cc1cnc(C(=O)[C@]23Cc4cnn(-c5ccc(F)cc5)c4C=C2CCN(S(=O)(=O)c2ccc(Cl)c(Cl)c2)C3)s1 [Example 12O, (R)-(6-((3,4-dichlorophenyl)sulfonyl)-1-(4-fluorophenyl)-4,4a,5,6,7,8-hexahydro-1H-pyrazolo[3,4-g]isoquinolin-4a-yl)(5-methylthiazol-2-yl)methanone]	–	–
